Measurements: patent publication EP1021088B1, “FUNGICIDE MIXTURES BASED ON FLUQUINCONAZOLE” (Aventis CropScience UK Limited, priority 1997, dated 1999)

What was measured:
[1] = system: Erysiphe graminis (powdery mildew); experiment: Control of powdery mildew on wheat plants, spraying one day after inoculation; type: in vivo; details: sprayed one day after inoculation
Procedure: (§1) Wheat plants were inoculated with Erysiphe graminis (powdery mildew). Two days after inoculation, they were sprayed with fluquinconazole, obtained by diluting with water to the desired concentration, a suspension concentrate comprising 10% by weight active ingredient, or azoxystrobin obtained by diluting with water to the desired concentration, the commercial product sold under the trade name "Amistar", or mixtures of these. One week after inoculation, the wheat was assessed for control of disease. To indicate the existence of synergism between the active components the results were treated in the manner described by Colby S.R., "Calculating Synergistic and Antagonistic Responses of Herbicide Combinations" in Weeds 1967 15, 20-22). In this method the "expected" percent control of growth, E, of the combination compared with untreated control is given by the equation E = A + F -(AF)/(100) [formula] where A is the % control by azoxystrobin used alone at a given concentration and F is the % control by fluquinconazole, used alone at a given concentration. […] In the table, component "az" is azoxystrobin and "fq" is fluquinconazole. Table 1 In a similar manner, Example 1 was repeated with spraying one day after inoculation. The results are as follows Table 2

[2] = system: Erysiphe graminis (powdery mildew); experiment: Control of powdery mildew on wheat plants, spraying two days after inoculation; type: in vivo; details: sprayed two days after inoculation, assessed one week after inoculation
Procedure: as §1, with “fluquinconazole.” for “fluquinconazole. Table 1 In a similar manner, Example 1 was repeated with spraying one day after inoculation. The results are as follows Table 2”

CO/C=C(/C(=O)OC)c1ccccc1Oc1cc(Oc2ccccc2C#N)ncn1 [az, methyl (E)-2-{2-[6-(2-cyanophenoxy)pyrimidin-4-yloxy]phenyl}-3-methoxyacrylate]
% Control Observed ([1]; az 31.25 g cpd/ha): 0%
% Control Observed ([1]; az 62.5 g cpd/ha): 0%
% Control Observed ([2]; az 31.25 g cpd/ha): 10%
% Control Observed ([2]; az 62.5 g cpd/ha): 12%
% Control Observed ([2]; az 125 g cpd/ha): 42%
% Control Observed ([2]; az 187.5 g cpd/ha): 62%

O=c1c2cc(F)ccc2nc(-n2cncn2)n1-c1ccc(Cl)cc1Cl [fq, 3-(2,4-dichlorophenyl)-6-fluoro-2-((1H)-1,2,4-triazol-1-yl)-4(3H)-quinazolinone]
% Control Observed ([1]; fq 15.25 g cpd/ha): 12%
% Control Observed ([1]; fq 31.25 g cpd/ha): 68%
% Control Observed ([2]; fq 15.25 g cpd/ha): 24%
% Control Observed ([2]; fq 31.25 g cpd/ha): 70%
